The results in this text go back to US11065240B2, “Drug combinations to treat multiple myeloma” (Exelixis, Inc., priority 2014, dated 2021).

For test [1], the system named is 5TGM1 mouse myeloma cells. As to the kind of experiment: 5TGM1 murine multiple myeloma model, study 1: bone lesions and tumor burden. It is filed as in vivo. To be noted: for bone protective properties/effects: cabozantinib 10 or 30 mg/kg PO QD; for frequency of soft tissue lesions: cabozantinib both doses (10 and 30 mg/kg PO QD). The procedure: Cabozantinib (XL184) is obtained from the Exelixis in powder form. It is dissolved in sterile water to a concentration of 1 mg/ml for dosing at 10 mg/kg or 30 mg/kg. The dosing solution is prepared daily within one hour before dosing. The undissolved test compound will be stored at ambient or room temperature in a dry environment such as in a dessicator. The test compound is administered daily by oral gavage. Bortezomib is obtained from LC Laboratories (Boston, Mass., USA) in powder form and dissolved in EtOH. The stock solution is stored at -20° C. The bortezomib dosing solutions are prepared fresh for every dosing as follows: 25 μl of the stock solution of 25 mg/ml of bortezomib (LC Laboratories, Boston, Mass., USA) in EtOH and 25 μl of EtOH is diluted in 3.61 ml of 0.9% NaCl to obtain the concentration of 0.17 mg/ml. The dosing volume is 3 ml/kg, resulting in the dose 0.5 mg/kg. Bortezomib is administered intraperitoneally twice a week. 5TGM1 mouse multiple myeloma cells are obtained from the Department of Molecular Medicine, University of Texas Health Science Center at San Antonio. Cell culturing is performed according to standard procedures. 5TGM1 mouse myeloma cells (2×10^6 cells in 0.1 ml of PBS) are inoculated into the tail vein of the mice at day 0. Viability of the cells will be determined before and after the inoculations. Cancer cell inoculation will cause the mice to develop a bone disease typical for multiple myeloma. Blood samples will be collected from the saphenous vein before the inoculation of cancer cells, at days 15, 22, 35 and at sacrifice. The serum samples will be prepared within one hour of sampling, and stored at -70° C. Serum paraprotein IgG2b will be analyzed using mouse IgG2b ELISA quantitation kit (Bethyl Laboratories Inc, Montgomery, Tex., USA). Serum […] activity and PINP concentration will be analyzed using Mouse TRAP and Mouse PINP kits (IDS, Boldon, UK). The development of the myeloma bone disease is monitored by x-ray radiography at day 35. Animals will be anesthethized by isoflurane and x-rayed in a prone position with the Faxitron Specimen Radiographic System MX-20 D12 (Faxitron Corp. Illinois, USA) using Faxitron Dicom 3.0-software. At least one radiograph (both hind limbs) per animal will be taken on each x-ray occasion (31 kV, 10 seconds, magnification 2×). The lesion number and lesion area in hind limbs will be determined from the images with MetaMorph image analysis software. Statistical analysis will be performed with statistical software R (version 2.14.0 or newer, www.r-project.org) or OriginPro (version 8.6 or newer, OriginLab, Northampton, Mass., USA). The mean and standard deviation of each parameter will be determined. All statistical analyses will be performed as two-sided tests. Normal distribution and homogeneity of variance will be checked before further analyses. In case of violating these assumptions, either log transformation or other appropriate transformation (e.g. square root, reciprocal) will be applied. If the assumptions are fulfilled as such or after transformation, Oneway ANOVA will be used for end-point parameters to assess whether the values obtained between groups are statistically different (with p<0.05) followed by Tukey test for comparison against the control group. If the assumptions are not fulfilled even after the transformations described above, rank-transformation will be applied and the non-parametric Kruskal-Wallis test followed by Mann-Whitney U-test will be used. Linear mixed effects model will be used for repeated measurements like biochemical markers. Female C57BL/KaLwRij mice were allocated to treatment groups (n=15 per group) with equivalent average body weights. Four experimental groups were utilized in each of 2 studies: a vehicle control group, and groups receiving single agent bortezomib (0.5 mg/kg ip twice a week) or cabozantinib (10 mg/kg, PO QD). […]

In test [2] the test system is 5TGM1 mouse myeloma cells. As to the kind of experiment: 5TGM1 murine multiple myeloma model, study 2: overall survival, alone or in combination. Type of test: in vivo. Particulars: for prolongation of overall survival (OS) compared to vehicle, statistical significance / median survival time: bortezomib 0.5 mg/kg ip twice a week, cabozantinib 10 mg/kg PO QD; for median survival time: vehicle 36 d, FIG. 1. How it is done:
Cabozantinib (XL184) is obtained from the Exelixis in powder form. It is dissolved in sterile water to a concentration of 1 mg/ml for dosing at 10 mg/kg or 30 mg/kg. The dosing solution is prepared daily within one hour before dosing. The undissolved test compound will be stored at ambient or room temperature in a dry environment such as in a dessicator. The test compound is administered daily by oral gavage.
Bortezomib is obtained from LC Laboratories (Boston, Mass., USA) in powder form and dissolved in EtOH. The stock solution is stored at −20° C. The bortezomib dosing solutions are prepared fresh for every dosing as follows: 25 μl of the stock solution of 25 mg/ml of bortezomib (LC Laboratories, Boston, Mass., USA) in EtOH and 25 μl of EtOH is diluted in 3.61 ml of 0.9% NaCl to obtain the concentration of 0.17 mg/ml. The dosing volume is 3 ml/kg, resulting in the dose 0.5 mg/kg. Bortezomib is administered intraperitoneally twice a week.
5TGM1 mouse multiple myeloma cells are obtained from the Department of Molecular Medicine, University of Texas Health Science Center at San Antonio. Cell culturing is performed according to standard procedures. 5TGM1 mouse myeloma cells (2×10^6 cells in 0.1 ml of PBS) are inoculated into the tail vein of the mice at day 0. Viability of the cells will be determined before and after the inoculations. Cancer cell inoculation will cause the mice to develop a bone disease typical for multiple myeloma.
Statistical analysis will be performed with statistical software R (version 2.14.0 or newer, www.r-project.org) or OriginPro (version 8.6 or newer, OriginLab, Northampton, Mass., USA). The mean and standard deviation of each parameter will be determined. All statistical analyses will be performed as two-sided tests. Normal distribution and homogeneity of variance will be checked before further analyses. In case of violating these assumptions, either log transformation or other appropriate transformation (e.g. square root, reciprocal) will be applied. If the assumptions are fulfilled as such or after transformation, Oneway ANOVA will be used for end-point parameters to assess whether the values obtained between groups are statistically different (with p<0.05) followed by Tukey test for comparison against the control group. If the assumptions are not fulfilled even after the transformations described above, rank-transformation will be applied and the non-parametric Kruskal-Wallis test followed by Mann-Whitney U-test will be used. Linear mixed effects model will be used for repeated measurements like biochemical markers.
Female C57BL/KaLwRij mice were allocated to treatment groups (n=15 per group) with equivalent average body weights. Four experimental groups were utilized in each of 2 studies: a vehicle control group, and groups receiving single agent bortezomib (0.5 mg/kg ip twice a week) or cabozantinib (10 mg/kg, PO QD). Study 1 also included a higher dose cabozantinib group (30 mg/kg, PO QD), and study 2 included a combination group: bortezomib (0.5 mg/kg ip twice a week) plus cabozantinib (10 mg/kg, PO QD). […]
On day 0, animals were inoculated with 5TGM1 mouse myeloma cells by IV administration. […] Body weights were determined twice a week and blood samples were collected on days—1, 15, 22, and 34 for analysis of paraprotein (IgG2b) and TRACP 5b. In study 1 the development of osteolytic lesions was detected by radiography at the end of the study. […]

Setting [3] is: study 1, bortezomib 0.5 mg/kg ip twice a week.
Setting [4] is: study 1, 30 mg/kg PO QD, radiography at end of study.
The mark [5] stands for this setting: study 1, both the 10 and 30 mg/kg doses PO QD.

In the case of `CC(C)C[C@H](NC(=O)[C@H](Cc1ccccc1)NC(=O)c1cnccn1)B(O)O` [bortezomib, reference compound], in test [1] (setting [3]), the bone protective properties/effects result is “did not show bone protective properties” and the “frequency of soft tissue lesions” value is “decreased”. The “serum IgG2b levels” value in test [1] (study 1, female C57BL/KaLwRij mice, bortezomib 0.5 mg/kg ip twice a week, vs vehicle) was “reduced”. Moreover, in test [2], the “prolongation of overall survival (OS) compared to vehicle, statistical significance” value is listed as “not” and the median survival time was determined as 43 days.
Regarding `COc1cc2nccc(Oc3ccc(NC(=O)C4(C(=O)Nc5ccc(F)cc5)CC4)cc3)c2cc1OC` [cabozantinib, N-(4-{[6,7-bis(methyloxy)quinolin-4-yl]oxy}phenyl)-N′-(4-fluorophenyl)cyclopropane-1,1-dicarboxamide], the “bone-protective and anti-tumor effects (conclusion)” value in test [1] (murine model of MM, conclusions) was “showed both bone-protective and anti-tumor effects”. In addition, in test [1] (setting [4]), the “mean area of osteolytic lesions” value is given as “reduced” and the “total area of osteolytic lesions” value is “reduced”. In test [1] (study 1, 10 and 30 mg/kg PO QD), the “necrotic tumor area in bone” value is reported as “dose dependently increased”. In test [1] (setting [3]), the bone protective properties/effects entry is “exhibited bone protective effects” and the “frequency of soft tissue lesions” value is on record as “decreased”. Besides, in test [1] (study 1, both cabozantinib-treated groups (10 and 30 mg/kg), vs vehicle control), the “start of the rise in serum IgG2b” value is on record as “started earlier than vehicle control”. For the same compound, in test [1] (study 1, both cabozantinib-treated groups, vs vehicle control), the “relative IgG2b at sacrifice” value was “a significant difference was not observed”. Also, in test [1] (setting [5]), the “osteoclast counts at the tumor-bone interface” value is “reduced” and the “serum TRACP 5b values” was “reduced”. The relative bone area result in test [1] (study 1, histomorphometry, vs control) was “did not differ from control”. Also, in test [2], the “prolongation of overall survival (OS) compared to vehicle, statistical significance” value is recorded as “statistically significant” and the median survival time came out at 48 days. For the same compound, the “prolongation of overall survival (conclusion, comparator not stated)” value in test [2] (conclusions) is “statistically-significant prolongation”.
